Converted amounts (≈) assume the structure as drawn. Where two headings read alike, the source gives them in different places. *1 amine or outer side, *2 acyl side, *3 side chain or, on linkers, in order; H or OH if unused. Where a SMILES comes first, the peptide text is derived from it. Bridges are numbered along the chain shown (N, C = ends). [ ]: non-standard residue; d: D form. The star is where a group is joined. X1 = NC1=N[C@@H]([C@H](N[*:1])C(=O)[*:2])C[C@H](O)N1; ΔAla(Z-3-ureido) = NC(=O)N/C=C(\N)C(=O)O; β3hOrn = NCCC[C@H](N)CC(=O)*; Dap = NC[C@H](N)C(=O)O
How the values were obtained:
[1] = test system: VRE (Vancomycin Resistant Enterococcus faeclum)
Procedure: (§1) HHC was also tested for effectiveness against various bacterial isolates obtained from human subjects.

[2] = test system: MRSA (Methicillin Resistant Staphylococcus aureus); experiment: Patient isolates evaluated for antibiotic sensitivity, MRSA
Procedure: as §1

[3] = test system: OxaRSA (Oxacillin Resistant Staphylococcus aureus); experiment: Patient isolates evaluated for antibiotic sensitivity, OxaRSA; details: patient G, OxaRSA
Procedure: as §1

[4] = test system: Hela cells; details: Mannering et al.; cited from earlier work
[5] = test system: CEM leukemia cells; details: Mannering et al.; cited from earlier work
[6] = test system: adriamycin- and vinblastin-resistant CEM cells; details: Mannering et al.; cited from earlier work
[7] = test system: TB; details: currently utilized anti-TB drugs, for comparison; cited from earlier work
[8] = test system: Lactobacilli; details: U.S. Pat. No. 5,082,975; cited from earlier work
[9] = Carson, 1951; cited from earlier work
[10] = test system: Listeria monocytogenes; details: U.S. Pat. Nos. 5,286,506; 5,455,038; cited from earlier work

In the case of `CC1(C)S[C@@H]2[C@H](NC(=O)[C@H](N)c3ccccc3)C(=O)N2[C@H]1C(=O)O` [Amp, Ampicillin], the antibiotic sensitivity ([1]; patient A, R > 8 μg/ml) is reported as “R (R > 8 μg/ml)”, the antibiotic sensitivity ([1]; patient B, R > 8 μg/ml) is reported as “R (R > 8 μg/ml)” and the antibiotic sensitivity ([1]; patient C, R > 8 μg/ml) is reported as “R (R > 8 μg/ml)”. The antibiotic sensitivity ([2]; patient F, R > 8 μg/ml) was “R (R > 8 μg/ml)”.

With `CC(=O)OCC1=C(C(=O)O)N2C(=O)[C@@H](NC(=O)Cc3cccs3)[C@H]2SC1` [Ceph, Cephalothin] the antibiotic sensitivity ([2]; patient D, R > 32 μg/ml) was “R (R > 32 μg/ml)”, the antibiotic sensitivity ([2]; patient E, R > 32 μg/ml) was “R (R > 32 μg/ml)” and the antibiotic sensitivity ([3]; R > 32 μg/ml) was “R (R > 32 μg/ml)”.

In the case of `O=C(N[C@H](CO)[C@H](O)c1ccc([N+](=O)[O-])cc1)C(Cl)Cl` [Chlor, Chloramphenicol], the antibiotic sensitivity ([1]; patient A, threshold not given) is reported as “S”, the antibiotic sensitivity ([1]; patient B, threshold not given) is reported as “S” and the antibiotic sensitivity ([1]; patient C, threshold not given) is reported as “S”.

In the case of `O=C(O)c1cn(C2CC2)c2cc(N3CCNCC3)c(F)cc2c1=O` [Cipro, Ciprofloxacin], the antibiotic sensitivity ([1]; patient A, R > 2 μg/ml) is reported as “R (R > 2 μg/ml)”, the antibiotic sensitivity ([1]; patient B, R > 2 μg/ml) is reported as “R (R > 2 μg/ml)” and the antibiotic sensitivity ([1]; patient C, R > 2 μg/ml) is reported as “R (R > 2 μg/ml)”. For the same compound, the antibiotic sensitivity ([2]; patient D, R > 2 μg/ml) was “R (R > 2 μg/ml)”, the antibiotic sensitivity ([2]; patient E, R > 2 μg/ml) was “R (R > 2 μg/ml)” and the antibiotic sensitivity ([2]; patient F, R > 2 μg/ml) was “R (R > 2 μg/ml)”. The antibiotic sensitivity ([3]; R > 2 μg/ml) was “R (R > 2 μg/ml)”.

In the case of `CCC[C@@H]1C[C@@H](C(=O)N[C@@H]([C@H]2O[C@H](SC)[C@H](O)[C@@H](O)[C@H]2O)[C@H](C)Cl)N(C)C1` [Clin, Clindamycin], the antibiotic sensitivity ([2]; patient D, R > 8 μg/ml) is reported as “R (R > 8 μg/ml)”, the antibiotic sensitivity ([2]; patient E, R > 8 μg/ml) is reported as “R (R > 8 μg/ml)” and the antibiotic sensitivity ([3]; R > 8 μg/ml) is reported as “R (R > 8 μg/ml)”.

In the case of `CC(C)=CCC1=C(O)C(C(=O)C(C)C)=C(O)C(CC=C(C)C)(CC=C(C)C)C1=O` [Colupulone], the “activity against Hela cells” value [4] is listed as “active against Hela cells”, the “activity against CEM leukemia cells” value [5] is listed as “active” and the “activity against resistant CEM cells” value [6] is listed as “active”.

In the case of `N[C@@H]1CON=C1O` [Cycloserine], the MIC [7] is given as 147 to 195 µM.

For `CC[C@H]1OC(=O)[C@H](C)[C@@H](O[C@H]2C[C@@](C)(OC)[C@@H](O)[C@H](C)O2)[C@H](C)[C@@H](O[C@@H]2O[C@H](C)C[C@H](N(C)C)[C@H]2O)[C@](C)(O)C[C@@H](C)C(=O)[C@H](C)[C@@H](O)[C@]1(C)O` [Eryth, Erythromycin], the antibiotic sensitivity ([2]; patient D, R > 8 μg/ml) was “R (R > 8 μg/ml)”, the antibiotic sensitivity ([2]; patient E, R > 8 μg/ml) was “R (R > 8 μg/ml)” and the antibiotic sensitivity ([3]; R > 8 μg/ml) was “R (R > 8 μg/ml)”.

In the case of `CC[C@@H](CO)NCCN[C@@H](CC)CO` [Ethambutol], the MIC [7] is listed as 5 to 25 µM.

For `CCc1cc(C(N)=S)ccn1` [Ethionamide], the MIC [7] is listed as 15 µM (≈ 2.49 µg/mL).

For `NNC(=O)c1ccncc1` [Isoniazid], the MIC [7] is listed as 1.5 µM (≈ 0.206 µg/mL).

With `Cc1onc(-c2ccccc2)c1C(=O)N[C@@H]1C(=O)N2[C@@H]1SC(C)(C)[C@@H]2C(=O)O` [Oxa, Oxacillin] the antibiotic sensitivity ([2]; patient D, R > 8 μg/ml) was “R (R > 8 μg/ml)”, the antibiotic sensitivity ([2]; patient E, R > 8 μg/ml) was “R (R > 8 μg/ml)” and the antibiotic sensitivity ([3]; R > 8 μg/ml) was “R (R > 8 μg/ml)”.

In the case of `NC(=O)c1cnccn1` [Pyrazinamide], the MIC [7] is listed as 122 µM (≈ 15 µg/mL).

For `CO[C@H]1/C=C/O[C@@]2(C)Oc3c(C)c(O)c4c(O)c(c(/C=N/N5CCN(C)CC5)c(O)c4c3C2=O)NC(=O)/C(C)=C\C=C\[C@H](C)[C@H](O)[C@@H](C)[C@@H](O)[C@@H](C)[C@H](OC(C)=O)[C@@H]1C` [Rif, Rifampin], the antibiotic sensitivity ([1]; patient B, threshold not given) was “S” and the antibiotic sensitivity ([2]; patient F, threshold not given) was “S”.

For `[H]/N=C(/N)N[C@H]1[C@H](O)[C@@H](O)[C@H](O[C@@H]2O[C@@H](C)[C@](O)(C=O)[C@H]2O[C@@H]2O[C@@H](CO)[C@H](O)[C@@H](O)[C@@H]2NC)[C@@H](N/C(N)=N\[H])[C@@H]1O` [Strep, Streptomycin], the antibiotic sensitivity ([1]; patient B, R > 2000 μg/ml) is given as “R (R > 2000 μg/ml)” and the MIC [7] is given as 1.8 to 17 µM.

In the case of `CN(C)[C@@H]1C(=O)C(C(N)=O)=C(O)[C@@]2(O)C(=O)C3=C(O)c4c(O)cccc4[C@@](C)(O)[C@H]3C[C@@H]12` [Tetra, Tetracycline], the antibiotic sensitivity ([1]; patient A, threshold not given) is reported as “S” and the antibiotic sensitivity ([1]; patient B, threshold not given) is reported as “S”.

With `CN[C@H](CC(C)C)C(=O)N[C@H]1C(=O)N[C@@H](CC(N)=O)C(=O)N[C@H]2C(=O)N[C@H]3C(=O)N[C@H](C(=O)N[C@H](C(=O)O)c4cc(O)cc(O)c4-c4cc3ccc4O)[C@H](O)c3ccc(c(Cl)c3)Oc3cc2cc(c3O[C@@H]2O[C@H](CO)[C@@H](O)[C@H](O)[C@H]2O[C@H]2C[C@](C)(N)[C@H](O)[C@H](C)O2)Oc2ccc(cc2Cl)[C@H]1O` [Vanco, Vancomycin] the antibiotic sensitivity ([1]; patient A, R > 16 μg/ml) was “R (R > 16 μg/ml)”, the antibiotic sensitivity ([1]; patient B, R > 16 μg/ml) was “R (R > 16 μg/ml)” and the antibiotic sensitivity ([1]; patient C, R > 16 μg/ml) was “S”. For the same compound, the antibiotic sensitivity ([2]; patient D, R > 16 μg/ml) was “S”, the antibiotic sensitivity ([2]; patient E, R > 16 μg/ml) was “S” and the antibiotic sensitivity ([3]; R > 16 μg/ml) was “S”.

In the case of `NCCC[C@H](N)CC(=O)N[C@H]1CNC(=O)[C@H]([C@H]2C[C@H](O)NC(N)=N2)NC(=O)/C(=C/NC(N)=O)NC(=O)[C@H](CO)NC(=O)[C@H](CO)NC1=O` [Viomycin] (β3hOrn-[Dap]SS[ΔAla(Z-3-ureido)][X1]; lactam 1-C), the MIC [7] is given as 1.5 to 15 µM.

In the case of `CC(C)CCC1=C(O)C(C(=O)CC(C)C)=C(O)C(CCC(C)C)(CCC(C)C)C1=O` [hexahydrolupulone], the “growth inhibition of certain Lactobacilli” value [8] is given as “inhibits the growth of certain Lactobacilli” and the “stability relative to non-hydrogenated parent” value [9] is given as “more stable than lupulone”.

For `CC(C)CCC(=O)C1(O)C(O)=C(C(=O)CC(C)C)C(=O)C1CCC(C)C` (stereo not shown) [tetrahydroisohumulone, reference compound], the “growth inhibition of food pathogens” value [10] is given as “can inhibit the growth of food pathogens, such as Listeria monocytogenes”.

In the case of Gentamicin, the antibiotic sensitivity ([1]; patient B, threshold not given) is reported as “S”.

For Peniciliin, the antibiotic sensitivity ([1]; patient A, R > 8 μg/ml) was “R (R > 8 μg/ml)”, the antibiotic sensitivity ([1]; patient B, R > 8 μg/ml) was “R (R > 8 μg/ml)” and the antibiotic sensitivity ([1]; patient C, R > 8 μg/ml) was “R (R > 8 μg/ml)”. The antibiotic sensitivity ([2]; patient D, R > 8 μg/ml) was “R (R > 8 μg/ml)”, the antibiotic sensitivity ([2]; patient E, R > 8 μg/ml) was “R (R > 8 μg/ml)” and the antibiotic sensitivity ([2]; patient F, R > 8 μg/ml) was “R (R > 8 μg/ml)”. The antibiotic sensitivity ([3]; R > 8 μg/ml) was “R (R > 8 μg/ml)”.

— patent US5827895A, “Hexahydrolupulones useful as anticancer agents” (Regents of the University of Minnesota, priority 1996, dated 1998)
